This test concerns the target T1, glucocorticoid receptor (Homo sapiens, UniProt P04150).
T1 construct: endogenous in cells; ATCC cat
T1 sequence (P04150 1-777): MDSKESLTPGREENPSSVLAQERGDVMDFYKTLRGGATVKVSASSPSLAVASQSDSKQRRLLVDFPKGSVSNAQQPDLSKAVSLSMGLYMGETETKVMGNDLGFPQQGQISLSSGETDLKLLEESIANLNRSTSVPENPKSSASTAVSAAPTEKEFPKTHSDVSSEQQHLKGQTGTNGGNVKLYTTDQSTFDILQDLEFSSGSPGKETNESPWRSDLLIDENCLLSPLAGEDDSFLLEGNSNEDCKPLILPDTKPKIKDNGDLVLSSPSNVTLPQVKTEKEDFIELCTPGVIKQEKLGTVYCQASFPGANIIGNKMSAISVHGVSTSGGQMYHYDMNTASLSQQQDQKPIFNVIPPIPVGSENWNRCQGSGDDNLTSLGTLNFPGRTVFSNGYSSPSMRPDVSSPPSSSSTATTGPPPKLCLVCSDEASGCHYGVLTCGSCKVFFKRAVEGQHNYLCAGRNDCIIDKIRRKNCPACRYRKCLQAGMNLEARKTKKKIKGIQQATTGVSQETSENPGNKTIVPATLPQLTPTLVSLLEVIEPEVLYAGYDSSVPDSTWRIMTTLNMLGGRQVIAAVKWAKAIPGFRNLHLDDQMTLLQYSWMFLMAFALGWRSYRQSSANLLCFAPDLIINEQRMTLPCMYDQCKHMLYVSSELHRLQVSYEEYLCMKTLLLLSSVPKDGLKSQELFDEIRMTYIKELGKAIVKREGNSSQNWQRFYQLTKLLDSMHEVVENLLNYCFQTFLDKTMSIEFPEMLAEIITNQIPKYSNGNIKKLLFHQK
Kind of test: Hep G2 TAT Ki: inhibition of dexamethasone-induced TAT in HepG2 cells (96 well). The test is classed as cell-based. The note with it: challenge of 100 nM dexamethasone, IC50 converted to Ki by Cheng and Prusoff equation. How it is done:
Glucocorticoid mediated activation of TAT occurs by transactivation of glucocorticoid response elements in the TAT promoter by glucocorticoid receptor-agonist complex.
HepG2 cells were cultured using MEME media supplemented with 10% (v/v) foetal bovine serum; 2 mM L-glutamine and 1% (v/v) NEAA at 37° C., 5%/95% (v/v) CO2/air.
Compounds were serially half log diluted in 100% (v/v) dimethylsulphoxide from a 10 mM stock.
HepG2 cells were then lysed with 30 μl of cell lysis buffer containing a protease inhibitor cocktail for 15 minutes at 4° C. […] After 2 hours incubation at 37° C. the reaction was terminated by the addition of 15 μl of 10M aqueous potassium hydroxide solution, and the plates incubated for a further 30 minutes at 37° C.
[compound] and fitting the data to a 4 parameter logistic equation.
What is called Ki is a measure of affinity in units of concentration, obtained from inhibition or displacement. Lower therefore signals higher affinity. “5-(1-(2-fluoro-2-methylpropyl)-4-((2-methyl-2H-1,2,3-triazol-4-yl)sulfonyl)piperazin-2-yl)-1-(4-fluorophenyl)-6-methyl-1H-indazole [Example 162a]” had a Ki of 57 nM.

In turn, `Cc1cc2c(cnn2-c2ccc(F)cc2)cc1[C@@H]1CN(S(=O)(=O)c2cnn(C)n2)CCN1C[C@H]1C[C@@H](O)C1` (racemic) [Example 154, 3-((2-(1-(4-fluorophenyl)-6-methyl-1H-indazol-5-yl)-4-((2-methyl-2H-1,2,3-triazol-4-yl)sulfonyl)piperazin-1-yl)methyl)cyclobutan-1-ol] had a Ki of 24 nM. In the case of `Cc1cc2c(cnn2-c2ccc(F)cc2)cc1[C@@H]1CN(S(=O)(=O)c2cnn(C)n2)CCN1C[C@H](C)F` (racemic) [Example 158, 1-(4-fluorophenyl)-5-(1-(2-fluoropropyl)-4-((2-methyl-2H-1,2,3-triazol-4-yl)sulfonyl)piperazin-2-yl)-6-methyl-1H-indazole] it was 45 nM; in that of `Cc1cc2c(cnn2-c2ccc(F)cc2)cc1[C@H]1CN(S(=O)(=O)c2cnn(C)n2)C[C@@H](C)N1CC(C)C` (relative stereo) [Example 127], 22 nM; in that of `CO[C@H]1C[C@@H](CN2CCN(S(=O)(=O)c3cnn(C)n3)C[C@H]2c2cc3cnn(-c4ccc(F)cc4)c3cc2C)C1` (relative stereo) [Example 155, 1-(4-fluorophenyl)-5-(1-((3-methoxycyclobutyl)methyl)-4-((2-methyl-2H-1,2,3-triazol-4-yl)sulfonyl)piperazin-2-yl)-6-methyl-1H-indazole], 11 nM. As for `CO[C@H]1C[C@@H](CN2CCN(S(=O)(=O)c3cnc(C)s3)C[C@@H]2c2cc3cnn(-c4ccc(F)cc4)c3cc2C)C1` (relative stereo) [Example 172, 5-((3-(1-(4-fluorophenyl)-6-methyl-1H-indazol-5-yl)-4-((3-methoxycyclobutyl)methyl)piperazin-1-yl)sulfonyl)-2-methylthiazole], the figure is 36 nM; as for `Cc1cc2c(cnn2-c2ccc(F)cc2)cc1C1CN(S(=O)(=O)c2ccn(C)n2)CCN1CC(C)C` (single isomer, unassigned) [Example 1, 1-(4-fluorophenyl)-5-(1-isobutyl-4-((1-methyl-1H-pyrazol-3-yl)sulfonyl)piperazin-2-yl)-6-methyl-1H-indazole], 35 nM. In the case of `Cc1cc2c(cnn2-c2ccc(F)cc2)cc1C1CN(S(=O)(=O)c2cnn(C)n2)CCN1Cc1ccccc1` (single isomer, unassigned) [Example 5, 5-(1-benzyl-4-((2-methyl-2H-1,2,3-triazol-4-yl)sulfonyl)piperazin-2-yl)-1-(4-fluorophenyl)-6-methyl-1H-indazole] it was 420 nM; in that of `Cc1cc2c(cnn2-c2ccc(F)cc2)cc1C1CN(S(=O)(=O)c2cnn(C)n2)CCN1Cc1ccccc1` (single isomer, unassigned) [Example 6, 5-(1-benzyl-4-((2-methyl-2H-1,2,3-triazol-4-yl)sulfonyl)piperazin-2-yl)-1-(4-fluorophenyl)-6-methyl-1H-indazole], 46 nM. As for `Cc1cc2c(cnn2-c2ccc(F)cc2)cc1C1CN(S(=O)(=O)c2cnn(C)n2)CCN1CC(C)C` (single isomer, unassigned) [Example 10, 1-(4-fluorophenyl)-5-(1-isobutyl-4-((2-methyl-2H-1,2,3-triazol-4-yl)sulfonyl)piperazin-2-yl)-6-methyl-1H-indazole], the affinity corresponds to a Ki of 430 nM.

`Cc1cc2c(cnn2-c2ccc(F)cc2)cc1C1CN(S(=O)(=O)c2cnn(C)n2)CCN1CC(C)C` (single isomer, unassigned) [Example 11, 1-(4-fluorophenyl)-5-(1-isobutyl-4-((2-methyl-2H-1,2,3-triazol-4-yl)sulfonyl)piperazin-2-yl)-6-methyl-1H-indazole] showed a Ki of 20 nM. As for `Cc1cc2c(cnn2-c2ccc(F)cc2)cc1C1CN(S(=O)(=O)c2ccn(C)n2)CCN1CC(C)C` (single isomer, unassigned) [Example 20, 1-(4-fluorophenyl)-5-(1-isobutyl-4-((1-methyl-1H-pyrazol-3-yl)sulfonyl)piperazin-2-yl)-6-methyl-1H-indazole], the figure is 130 nM.

With `Cc1cc2c(cnn2-c2ccc(F)cc2)cc1C1CN(S(=O)(=O)c2cnn(C)n2)CCN1CC(C)C(F)(F)F` (single isomer, unassigned) [Example 21, 1-(4-fluorophenyl)-6-methyl-5-(4-((2-methyl-2H-1,2,3-triazol-4-yl)sulfonyl)-1-(3,3,3-trifluoro-2-methylpropyl)piperazin-2-yl)-1H-indazole], affinity was put at a Ki of 120 nM. For `Cc1cc2c(cnn2-c2ccc(F)cc2)cc1[C@@H]1CN(S(=O)(=O)c2cnn(C)n2)CCN1CC(C)C(F)(F)F` (single isomer, unassigned) [Example 23], the Ki stood at 13 nM. `Cc1cc2c(cnn2-c2ccc(F)cc2)cc1C1CN(S(=O)(=O)c2cnn(C)n2)CCN1C1CCC1` (single isomer, unassigned) [Example 25, 5-(1-cyclobutyl-4-((2-methyl-2H-1,2,3-triazol-4-yl)sulfonyl)piperazin-2-yl)-1-(4-fluorophenyl)-6-methyl-1H-indazole] came in with a Ki of 77 nM. In the case of `COC1CC(N2CCN(S(=O)(=O)c3cnn(C)n3)CC2c2cc3cnn(-c4ccc(F)cc4)c3cc2C)C1` (single isomer, unassigned) [Example 26, 1-(4-fluorophenyl)-5-(1-(3-methoxycyclobutyl)-4-((2-methyl-2H-1,2,3-triazol-4-yl)sulfonyl)piperazin-2-yl)-6-methyl-1H-indazole] it was 180 nM. In the case of `Cc1cc2c(cnn2-c2ccc(F)cc2)cc1C1CN(S(=O)(=O)c2cnn(C)n2)CCN1C1CCCC1` (single isomer, unassigned) [Example 27, 5-(1-cyclopentyl-4-((2-methyl-2H-1,2,3-triazol-4-yl)sulfonyl)piperazin-2-yl)-1-(4-fluorophenyl)-6-methyl-1H-indazole] it was 47 nM; in that of `Cc1cc2c(cnn2-c2ccc(F)cc2)cc1C1CN(S(=O)(=O)c2cnn(C)n2)CCN1C1COC1` (single isomer, unassigned) [Example 28, 1-(4-fluorophenyl)-6-methyl-5-(4-((2-methyl-2H-1,2,3-triazol-4-yl)sulfonyl)-1-(oxetan-3-yl)piperazin-2-yl)-1H-indazole], 230 nM. As for `Cc1cc2c(cnn2-c2ccc(F)cc2)cc1C1CN(S(C)(=O)=O)CCN1Cc1ccccc1` (single isomer, unassigned) [Example 29, 5-(1-benzyl-4-(methylsulfonyl)piperazin-2-yl)-1-(4-fluorophenyl)-6-methyl-1H-indazole], the figure is 74 nM; as for `Cc1cc2c(cnn2-c2ccc(F)cc2)cc1C1CN(S(C)(=O)=O)CCN1CC1CCOCC1` (single isomer, unassigned) [Example 30, 1-(4-fluorophenyl)-6-methyl-5-(4-(methylsulfonyl)-1-((tetrahydro-2H-pyran-4-yl)methyl)piperazin-2-yl)-1H-indazole], 90 nM; as for `Cc1ncc(S(=O)(=O)N2CCN(CC(C)C)C(c3cc4cnn(-c5ccc(F)cc5)c4cc3C)C2)s1` (single isomer, unassigned) [Example 31, 5-((3-(1-(4-fluorophenyl)-6-methyl-1H-indazol-5-yl)-4-isobutylpiperazin-1-yl)sulfonyl)-2-methylthiazole], 11 nM.

Turning to `Cc1cc2c(cnn2-c2ccc(F)cc2)cc1C1CN(S(=O)(=O)c2cnn(C)n2)CCN1CC(C)C(F)(F)F` (single isomer, unassigned) [Example 33], the Ki is 11 nM. Take `COCCS(=O)(=O)N1CCN(CC(C)C)C(c2cc3cnn(-c4ccc(F)cc4)c3cc2C)C1` (single isomer, unassigned) [Example 45, 1-(4-fluorophenyl)-5-(1-isobutyl-4-((2-methoxyethyl)sulfonyl)piperazin-2-yl)-6-methyl-1H-indazole]: the Ki was determined as 510 nM. As for `Cc1cc2c(cnn2-c2ccc(F)cc2)cc1C1CN(S(=O)(=O)CC2CC2)CCN1CC(C)C` (single isomer, unassigned) [Example 46, 5-(4-((cyclopropylmethyl)sulfonyl)-1-isobutylpiperazin-2-yl)-1-(4-fluorophenyl)-6-methyl-1H-indazole], the figure is 310 nM.

These data come from US12098144B2, “Piperazine indazole glucocorticoid receptor antagonists” (Corcept Therapeutics Incorporated, priority 2021, dated 2024).
